Numbers after ± are expanded uncertainties. Each block holds one compound with its values, some of them ahead of it.
Conditions: Liquid, Ebulliometric method (Recirculating still)

SMILES: O=Cc1ccco1 [2-furaldehyde]
vapor or sublimation pressure (435.15 K): 101.3 ± 0.71 kPa

vapor or sublimation pressure (439.05 K): 101.3 ± 0.71 kPa
SMILES: CC(=O)N(C)C [N,N-dimethylethanamide]

vapor or sublimation pressure (339.13 K): 101.3 ± 0.71 kPa
SMILES: CC(C)N(C)C [N,N-dimethylisopropylamine]

SMILES: CC(C)=O [acetone]
vapor or sublimation pressure (329.56 K): 101.3 ± 0.66 kPa

From the NIST ThermoML archive (doi:10.1016/j.jct.2018.03.019)
